How the values were obtained:
human recombinant HDAC6 = biological target: T1, human recombinant HDAC6 (Homo sapiens, UniProt Q9UBN7); assay: HDAC6 enzyme activity inhibition (HDAC Fluorimetric Drug Discovery Kit); type: biochemical; conditions: HDAC1 versus HDAC6
T1 construct: purchased Calbiochem Inc. 382180
T1 sequence (Q9UBN7 1-1215): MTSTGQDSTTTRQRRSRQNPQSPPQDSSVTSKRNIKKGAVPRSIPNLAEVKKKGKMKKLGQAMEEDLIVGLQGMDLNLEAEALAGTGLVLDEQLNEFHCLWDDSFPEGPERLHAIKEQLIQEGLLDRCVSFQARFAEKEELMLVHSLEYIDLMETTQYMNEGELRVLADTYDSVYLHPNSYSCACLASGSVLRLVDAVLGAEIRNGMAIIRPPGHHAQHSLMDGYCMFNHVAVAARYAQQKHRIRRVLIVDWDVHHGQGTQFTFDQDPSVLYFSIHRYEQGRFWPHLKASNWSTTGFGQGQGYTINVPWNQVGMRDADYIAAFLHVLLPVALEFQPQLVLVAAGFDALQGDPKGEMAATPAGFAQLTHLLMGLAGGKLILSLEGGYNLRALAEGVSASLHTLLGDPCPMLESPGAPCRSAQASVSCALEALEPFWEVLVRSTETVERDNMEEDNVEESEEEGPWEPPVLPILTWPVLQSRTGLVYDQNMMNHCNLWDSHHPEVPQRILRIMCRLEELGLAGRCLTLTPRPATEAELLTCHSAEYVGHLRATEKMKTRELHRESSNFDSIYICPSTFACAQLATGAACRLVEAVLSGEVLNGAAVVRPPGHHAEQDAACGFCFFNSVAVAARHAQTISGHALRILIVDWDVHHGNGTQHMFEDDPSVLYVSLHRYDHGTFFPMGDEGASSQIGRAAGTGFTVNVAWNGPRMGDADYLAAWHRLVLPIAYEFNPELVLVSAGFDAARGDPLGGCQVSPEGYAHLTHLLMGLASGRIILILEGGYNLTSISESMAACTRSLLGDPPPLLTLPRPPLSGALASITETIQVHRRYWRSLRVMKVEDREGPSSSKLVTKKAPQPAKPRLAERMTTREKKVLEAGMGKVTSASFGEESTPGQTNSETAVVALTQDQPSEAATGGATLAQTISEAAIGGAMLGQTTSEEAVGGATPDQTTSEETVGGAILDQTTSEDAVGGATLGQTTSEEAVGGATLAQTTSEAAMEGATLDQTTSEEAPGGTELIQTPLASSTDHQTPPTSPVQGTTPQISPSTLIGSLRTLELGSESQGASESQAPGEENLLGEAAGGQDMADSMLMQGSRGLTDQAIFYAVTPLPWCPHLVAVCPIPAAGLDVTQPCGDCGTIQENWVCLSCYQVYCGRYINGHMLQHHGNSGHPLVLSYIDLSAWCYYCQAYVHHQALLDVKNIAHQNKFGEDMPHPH
Method: (§1) An experiment was conducted to identify the selectivity of the 1,3,4-oxadiazole triazole compound of the present invention to HDAC6 through an experiment on HDAC1 and HDAC6 enzyme activity inhibition.
(§2) The HDAC enzyme activity was measured with HDAC Fluorimetric Drug Discovery Kit (BML-AK511, 516) of Enzo Life Science, Inc. For the test on the HDAC1 enzyme activity, human recombinant HDAC1 (BML-SE456) was used as an enzyme source and Fluor de Lys®-“SIRT1 (BNL-KI177)” was used as a substrate. A 5-fold dilution of the compound was divided into a 96-well plate, after which 0.3 μg of the enzyme and 10 μM of the substrate were inserted into each well and subjected to reaction at 30° C. for 60 minutes, such that Fluor de Lys® Developer II (BML-KI176) was inserted thereinto and subjected to reaction for 30 minutes and finished. After that, a fluorescence value (Ex 360, Em 460) was measured with a multi-plate reader (Flexstation 3, Molecular Device). An experiment on HDAC6 enzyme was conducted in accordance with the same protocol as in the HDAC1 enzyme activity test method by using human recombinant HDAC6 (382180) of Calbiochem Inc. For final result values, each IC50 value was calculated with GraphPad Prism 4.0 program.

human recombinant HDAC1 = biological target: T2, human recombinant HDAC1 (Homo sapiens, UniProt Q13547); assay: HDAC1 enzyme activity inhibition (HDAC Fluorimetric Drug Discovery Kit); type: biochemical; conditions: human recombinant HDAC1, Fluor de Lys substrate 10 μM, 30° C. 60 minutes
T2 construct: purchased Enzo Life Science, Inc. BML-SE456
Method: as §1, §2

T2 sequence (Q13547 whole entry): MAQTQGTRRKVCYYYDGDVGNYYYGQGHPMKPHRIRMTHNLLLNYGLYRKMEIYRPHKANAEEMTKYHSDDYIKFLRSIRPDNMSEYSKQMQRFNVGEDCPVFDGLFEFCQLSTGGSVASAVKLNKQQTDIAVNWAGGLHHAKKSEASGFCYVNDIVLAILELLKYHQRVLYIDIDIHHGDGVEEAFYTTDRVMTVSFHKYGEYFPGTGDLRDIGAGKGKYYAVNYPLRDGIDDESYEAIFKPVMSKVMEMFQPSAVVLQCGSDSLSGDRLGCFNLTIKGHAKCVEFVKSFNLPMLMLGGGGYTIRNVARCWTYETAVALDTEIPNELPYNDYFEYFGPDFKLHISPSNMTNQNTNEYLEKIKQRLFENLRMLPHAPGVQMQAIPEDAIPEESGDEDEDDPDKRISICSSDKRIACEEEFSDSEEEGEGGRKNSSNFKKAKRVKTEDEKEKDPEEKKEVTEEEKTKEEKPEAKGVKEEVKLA

HDAC6 selectivity (fold) (human recombinant HDAC6)	IC50 (human recombinant HDAC1) [µM]	Compound
1440	> 50	Fc1c(CN2CCCCC2)cccc1-c1cn(Cc2ccc(-c3nnc(C(F)F)o3)cn2)nn1 [Compound 28, 2-(difluoromethyl)-5-(6-((4-(2-fluoro-3-(piperidin-1-ylmethyl)phenyl)-1H-1,2,3-triazol-1-yl)methyl)pyridin-3-yl)-1,3,4-oxadiazole]
1424	> 50	CN(C)Cc1cc(Cl)cc(-c2cn(Cc3ccc(-c4nnc(C(F)F)o4)cn3)nn2)c1 [Compound 31, 1-(3-chloro-5-(1-((5-(5-(difluoromethyl)-1,3,4-oxadiazol-2-yl)pyridin-2-yl)methyl)-1H-1,2,3-triazol-4-yl)phenyl)-N,N-dimethylmethanamine]
1945	> 50	FC(F)c1nnc(-c2ccc(Cn3cc(-c4cc(Cl)cc(CN5CCCC5)c4)nn3)nc2)o1 [Compound 32, 2-(6-((4-(3-chloro-5-(pyrrolidin-1-ylmethyl)phenyl)-1H-1,2,3-triazol-1-yl)methyl)pyridin-3-yl)-5-(difluoromethyl)-1,3,4-oxadiazole]
1633	> 50	CN(C)Cc1cccc(-c2cn(Cc3ccc(-c4nnc(C(F)F)o4)cn3)nn2)c1Cl [Compound 34, 1-(2-chloro-3-(1-((5-(5-(difluoromethyl)-1,3,4-oxadiazol-2-yl)pyridin-2-yl)methyl)-1H-1,2,3-triazol-4-yl)phenyl)-N,N-dimethylmethanamine]
1146	> 50	FC(F)c1nnc(-c2ccc(Cn3cc(-c4cccc(CN5CCC5)c4Cl)nn3)nc2)o1 [Compound 35, 2-(6-((4-(3-(azetidin-1-ylmethyl)-2-chlorophenyl)-1H-1,2,3-triazol-1-yl)methyl)pyridin-3-yl)-5-(difluoromethyl)-1,3,4-oxadiazole]
1792	> 50	FC(F)c1nnc(-c2ccc(Cn3cc(-c4cccc(CN5CCCC5)c4Cl)nn3)nc2)o1 [Compound 36, 2-(6-((4-(2-chloro-3-(pyrrolidin-1-ylmethyl)phenyl)-1H-1,2,3-triazol-1-yl)methyl)pyridin-3-yl)-5-(difluoromethyl)-1,3,4-oxadiazole]
1160	> 50	CC1CCN(Cc2cccc(-c3cn(Cc4ccc(-c5nnc(C(F)F)o5)cn4)nn3)c2Cl)CC1 [Compound 37, 2-(6-((4-(2-chloro-3-((4-methylpiperidin-1-yl)methyl)phenyl)-1H-1,2,3-triazol-1-yl)methyl)pyridin-3-yl)-5-(difluoromethyl)-1,3,4-oxadiazole]
2777	> 50	Fc1cc(CN2CCC2)cc(-c2cn(Cc3ccc(-c4nnc(C(F)F)o4)cn3)nn2)c1 [Compound 38, 2-(6-((4-(3-(azetidin-1-ylmethyl)-5-fluorophenyl)-1H-1,2,3-triazol-1-yl)methyl)pyridin-3-yl)-5-(difluoromethyl)-1,3,4-oxadiazole]
1773	> 50	Fc1cc(CN2CCCC2)cc(-c2cn(Cc3ccc(-c4nnc(C(F)F)o4)cn3)nn2)c1 [Compound 39, 2-(difluoromethyl)-5-(6-((4-(3-fluoro-5-(pyrrolidin-1-ylmethyl)phenyl)-1H-1,2,3-triazol-1-yl)methyl)pyridin-3-yl)-1,3,4-oxadiazole]
2083	> 50	CN(C)Cc1ccc(-c2cn(Cc3ccc(-c4nnc(C(F)F)o4)cn3)nn2)cc1Cl [Compound 41, 1-(2-chloro-4-(1-((5-(5-(difluoromethyl)-1,3,4-oxadiazol-2-yl)pyridin-2-yl)methyl)-1H-1,2,3-triazol-4-yl)phenyl)-N,N-dimethylmethanamine]
2183	> 50	FC(F)c1nnc(-c2ccc(Cn3cc(-c4ccc(CN5CCC5)c(Cl)c4)nn3)nc2)o1 [Compound 42, 2-(6-((4-(4-(azetidin-1-ylmethyl)-3-chlorophenyl)-1H-1,2,3-triazol-1-yl)methyl)pyridin-3-yl)-5-(difluoromethyl)-1,3,4-oxadiazole]

Source: patent US20250214983A1, “1,3,4-OXADIAZOLE TRIAZOLE COMPOUNDS AS HISTONE DEACETYLASE 6 INHIBITOR, AND PHARMACEUTICAL COMPOSITION COMPRISING THE SAME” (Chong Kun Dang Pharmaceutical Corp., priority 2022, published 2025)
